This assay deals with human Kv7.2 (Homo sapiens (Human), UniProt O43526). Description: SyncroPatch 384 electrophysiology, activation of Kv7.2 in CHO cells. The assay is classed as cell-based. To be noted: Kv7.2 activation max %, relative to 30 μM ML-213 max activation. How it is done:
The potency of Kv7 uotentiators was determined using the SyncroPatch 384 (Nanion) high throughput electrophysiology platform.
CHO cells stably expressing either human Kv7.2, Kv7.4 or Kv7.5/7.3 under a constitutive CMV promoter were used for these studies. Cells were maintained in F12 Hams+1 mM L-glutamine (Hyclone) supplemented with 10% FBS (Sigma), 0.3× NEAA (Non-essential Gamino-acids) and 400ug/ml G418 at 37° C. in 5% CO2. Cells were cultured in T-225 flasks (Nunc) for 2-3 days to reach 85-95% confluence prior to electrophysiological recording.
Earle's balanced salt solution (in mM): 135 NaCl, 5.4 KCl, 5 Glucose, 2 CaCl2), 1 MgCl2, 5 HEPES, pH 7.4. Seal enhancer solution (in mM): 90 NaCl, 3 KCl, 35 CaCl2), 10 MgCl2, 10 HEPES, pH 7.4. Extracellular recording solution (in mM): 71 NaCl, 70 NMDG, 13 KCl, 5 Glucose, 2 CaCl2), 1 MgCl2, 10 HEPES, pH 7.4. Intracellular recording solution (in mM): 130 KF, 20 KCl, 4 EGTA, 10 HEPES, 2 EDTA, 0.01 Escin, pH 7.2.
Cells were harvested for electrophysiological recording upon reaching appropriate confluence. Cells were first washed in DPBS (Hyclone, Cat #SH30028.03) and then 2 ml of Accutase (MP Biomedicals #1000449) was added at 28° C. until ˜90% of cells were suspended. F12 HAM's media+1 mM L-glutamine (Hyclone, SH30026.02) was then added to the flask to dilute the accutase. Cells were then triturated until a single cell suspension was achieved, a cell count was performed, and cells were centrifuged for 2 min. at 1,000 rpm. Media was then aspirated, and cells were resuspended in Earle's balanced salt solution to a concentration of 0.75×10^6 cells/ml and allowed to recover for 25 min at 10° C.
At the beginning of each assay, 20 μl of cell suspension was dispensed into each well of a multi-hole 384-well SyncroPatch chip by the onboard pipettor. Cell sealing was initiated, and seal enhancer solution was added to facilitate seal formation. Upon completion of sealing, cells were washed 3 times with extracellular recording solution and the assay voltage protocol was started. Human Kv7.2, Kv7.4 or Kv7.5/7.3 channels were evaluated using a voltage protocol in which cells were voltage-clamped at a holding potential of −60 mV. Potassium currents were continuously activated with a series of three voltage steps to −30 mV for 3 seconds, 40 mV for 1 second and −90 mV for 4 seconds with 12 seconds between successive voltage sweeps. Potassium currents were measured from the −90 mV repolarizing step. Baseline current was assessed for 3.5 minutes prior to the addition of 5.6 μM zinc pyrithione (1μM for Kv7.4). Kv7.2, Kv7.4 or Kv7.5/7.3 current in the presence of zinc pyrithione was acquired over five minutes to allow channels to reach steady state activity prior to addition of test agents. Channel activity was monitored for three minutes preceding the addition of 30 μM ML-213 (3 minutes) to achieve maximum activation. 150 mM TEA with 10 μM XE-991 was applied for 2 minutes to measure the leak current during maximum inhibition of Kv7.2, Kv7.4 or Kv7.5/7.3 channels.
Example 61 Data Analysis Data were collected on the SyncroPatch platform using PatchControl software (Nanion) and processed and analyzed using DataControl Software (Nanion). Percent activation was calculated from potassium current as follows: The average current for the 5 sweeps in the presence of zinc pyrithione immediately preceding test agent addition was taken as the ‘control’ data. Likewise, the average potassium current in the presence of test agents 5 sweeps immediately preceding addition of 30 μM ML-213 was determined for ‘drug’ data. The average potassium current 5 sweeps immediately prior to addition of 150 mM TEA+10 μM XE-991 was determined for ‘max activation’ data while average currents from 5 sweeps immediately following addition of TEA was determined for ‘max inhibition’ data. […]
A general note: Patch clamp records ionic current or voltage across a cell membrane.

With `O=C(N[C@H](CO)c1cccc(Br)c1)NC12CC(C(F)(F)F)(C1)C2` [Example 44, 1-[(1S)-1-(3-bromophenyl)-2-hydroxyethyl]-3-[3-(trifluoromethyl)-1-bicyclo[1.1.1]pentanyl]urea], the Kv7.2 max turned out to be 40%. In the case of `C[C@H](NC(=O)NC12CC(F)(C1)C2)c1cccc(C(F)(F)F)c1` [Example 9, 1-(3-fluoro-1-bicyclo[1.1.1]pentanyl)-3-[(1S)-1-[3-(trifluoromethyl)phenyl]ethyl]urea] it was 51%. With `C[C@H](NC(=O)NC12CC(C)(C1)C2)c1cccc(OC(F)(F)F)c1` [Example 26, 1-(3-methyl-1-bicyclo[1.1.1]pentanyl)-3-[(1S)-1-[3-(trifluoromethoxy)phenyl]ethyl]urea], the Kv7.2 max was 58%. `O=C(NCc1cccc(Br)c1)NC12CC(C(F)(F)F)(C1)C2` [Example 36, 1-[(3-bromophenyl)methyl]-3-[3-(trifluoromethyl)-1-bicyclo[1.1.1]pentanyl]urea]: the Kv7.2 max came out at 55%. Take `CC(C)(C)c1cccc(CNC(=O)NC23CC(C2)C3)c1` [Example 42, 1-(1-bicyclo[1.1.1]pentanyl)-3-[(3-tert-butylphenyl)methyl]urea]: the Kv7.2 max came to 110%. `C[C@H](NC(=O)NC12CC(C1)C2)c1cccc(C(F)(F)F)c1` [Example 51, 1-(1-bicyclo[1.1.1]pentanyl)-3-[(1S)-1-[3-(trifluoromethyl)phenyl]ethyl]urea] gave a Kv7.2 max of 52%.

Consider `O=C(NCc1cccc(C(F)F)c1)NC12CC(C(F)(F)F)(C1)C2` [Example 31, 1-[[3-(difluoromethyl)phenyl]methyl]-3-[3-(trifluoromethyl)-1-bicyclo[1.1.1]pentanyl]urea], for which the Kv7.2 max came to 60%. For `N#CCOc1cccc(CNC(=O)NC23CC(C(F)(F)F)(C2)C3)c1` [Example 49, 1-[[3-(cyanomethoxy)phenyl]methyl]-3-[3-(trifluoromethyl)-1-bicyclo[1.1.1]pentanyl]urea], the Kv7.2 max was found to be 53%. For the compound `[2H]C([2H])(NC(=O)NC12CC(C(F)(F)F)(C1)C2)c1cccc(OC(F)(F)F)c1` [Example 35, 1-[dideuterio-[3-(trifluoromethoxy)phenyl]methyl]-3-[3-(trifluoromethyl)-1-bicyclo[1.1.1]pentanyl]urea], the Kv7.2 max was determined as 63%. Turning to `O=C(NCc1cccc(OC(F)(F)F)c1F)NC12CC(C(F)(F)F)(C1)C2` [Example 57, 1-[[3-(trifluoromethoxy)-2-fluorophenyl]methyl]-3-[3-(trifluoromethyl)-1-bicyclo[1.1.1]pentanyl]urea], the Kv7.2 max is recorded as 45%. With `C[C@H](NC(=O)NC12CC(C1)C2)c1cccc(OC(F)(F)F)c1` [Example 25, 1-(1-bicyclo[1.1.1]pentanyl)-3-[(1S)-1-[3-(trifluoromethoxy)phenyl]ethyl]urea] the figure was 45%; with `O=C(NCc1cccc(Cl)c1)NC12CC(C1)C2` [Example 41, 1-(1-bicyclo[1.1.1]pentanyl)-3-[(3-chlorophenyl)methyl]urea], 49%; with `CC12CC(NC(=O)NCc3cccc(C(F)(F)F)c3)(C1)C2` [Example 20, 1-(3-methyl-1-bicyclo[1.1.1]pentanyl)-3-[[3-(trifluoromethyl)phenyl]methyl]urea], 77%. In the case of `O=C(NCc1cccc(C(F)(F)F)c1)NC12CC(F)(C1)C2` [Example 11, 1-(3-fluoro-1-bicyclo[1.1.1]pentanyl)-3-[[3-(trifluoromethyl)phenyl]methyl]urea] it was 80%. Take `O=C(NCc1ccc2c(c1)OC(F)(F)O2)NC12CC(C(F)(F)F)(C1)C2` [Example 33, 1-[(2,2-difluoro-1,3-benzodioxol-5-yl)methyl]-3-[3-(trifluoromethyl)-1-bicyclo[1.1.1]pentanyl]urea]: the Kv7.2 max turned out to be 58%. With `N#Cc1cccc(CNC(=O)NC23CC(C(F)(F)F)(C2)C3)c1` [Example 5, 1-[(3-cyanophenyl)methyl]-3-[3-(trifluoromethyl)-1-bicyclo[1.1.1]pentanyl]urea], the Kv7.2 max stood at 41%.

As for `O=C(NCc1ccc(F)c(OC(F)F)c1)NC12CC(C(F)(F)F)(C1)C2` [Example 56, 1-[[3-(difluoromethoxy)-4-fluorophenyl]methyl]-3-[3-(trifluoromethyl)-1-bicyclo[1.1.1]pentanyl]urea], the Kv7.2 max worked out at 44%.

In the case of `O=C(NCc1cccc(OC(F)F)c1)NC12CC(C1)C2` [Example 43, 1-(1-bicyclo[1.1.1]pentanyl)-3-[[3-(difluoromethoxy)phenyl]methyl]urea], the Kv7.2 max was found to be 78%. Regarding `O=C(N[C@@H](CO)c1cccc(Br)c1)NC12CC(C(F)(F)F)(C1)C2` [Example 12, 1-[(1R)-1-(3-bromophenyl)-2-hydroxyethyl]-3-[3-(trifluoromethyl)-1-bicyclo[1.1.1]pentanyl]urea], the Kv7.2 max came to 69%. Compound `O=C(NCc1cccc(Br)c1)NC12CC(C1)C2` [Example 40, 1-(1-bicyclo[1.1.1]pentanyl)-3-[(3-bromophenyl)methyl]urea] showed a Kv7.2 max of 58%. Compound `CC12CC(NC(=O)NCc3cccc(OC(F)(F)F)c3)(C1)C2` [Example 46, 1-(3-methyl-1-bicyclo[1.1.1]pentanyl)-3-[[3-(trifluoromethoxy)phenyl]methyl]urea] showed a Kv7.2 max of 86%. `O=C(NCc1cccc(OC(F)(F)F)c1)NC12CC(C(F)(F)F)(C1)C2` [Example 2, 1-[[3-(trifluoromethoxy)phenyl]methyl]-3-[3-(trifluoromethyl)-1-bicyclo[1.1.1]pentanyl]urea] returned a Kv7.2 max of 70%. With `O=C(NCc1cccc(C=C(F)F)c1)NC12CC(F)(C1)C2` [Example 45, 1-[[3-(2,2-difluoroethenyl)phenyl]methyl]-3-(3-fluoro-1-bicyclo[1.1.1]pentanyl)urea], the Kv7.2 max came out at 71%.

In turn, `O=C(NCc1cccc(C(F)(F)F)c1)NC12CC(C(F)F)(C1)C2` [Example 22, 1-[3-(difluoromethyl)-1-bicyclo[1.1.1]pentanyl]-3-[[3-(trifluoromethyl)phenyl]methyl]urea] returned a Kv7.2 max of 74%. `C[C@H](NC(=O)NC12CC(F)(C1)C2)c1cccc(Br)c1` [Example 16, 1-[(1S)-1-(3-bromophenyl)ethyl]-3-(3-fluoro-1-bicyclo[1.1.1]pentanyl)urea] displayed a Kv7.2 max of 40%. For `O=C(NCc1cccc(OCC(F)(F)F)c1)NC12CC(C(F)(F)F)(C1)C2` [Example 58, 1-[[3-(2,2,2-trifluoroethoxy)phenyl]methyl]-3-[3-(trifluoromethyl)-1-bicyclo[1.1.1]pentanyl]urea], the Kv7.2 max turned out to be 67%. On to `COC12CC(NC(=O)NCc3cccc(C(F)(F)F)c3)(C1)C2` [Example 4, 1-(3-methoxy-1-bicyclo[1.1.1]pentanyl)-3-[[3-(trifluoromethyl)phenyl]methyl]urea], for which the Kv7.2 max was 64%. With `O=C(NCc1cccc(SC(F)(F)F)c1)NC12CC(F)(C1)C2` [Example 50, 1-(3-fluoro-1-bicyclo[1.1.1]pentanyl)-3-[[3-(trifluoromethylsulfanyl)phenyl]methyl]urea] the figure was 72%.

Source of the values: patent US20250002452A1, “BICYCLOPENTANE DERIVATIVES” (ICAGEN, LLC, priority 2022, published 2025).
